In US20060252707A1, “Pharmaceutical composition for the treatment and/or the prevention of atherosclerosis from infectious origin” (UNIVERSITE DE LIEGE, priority 2003, published 2006):

Key:
Format in all cases: cell-based, human
[1] = system: THP-1 cells conditioned with Chlamydia pneumoniae; experiment: Oxidant activity (ethylene production from KMB, gas liquid chromatography) of THP-1 cells conditioned with Chlamydia pneumoniae, then stimulated by PMA; details: for Ethylene: % of THP-1 + Chlamydia
Description: This model has been described in details in Mouithys Mickalad et al. (Biochem Biophys Res Comm 2001, 287: 781-788). Treatment of the Cells with Chlamydia pneumoniae:
The monocytes (in multiwell plates, 2×10^6 cells/well) are conditioned by a pre-incubation of 19 hours with elementary bodies of Chlamydia pneumoniae (at a dose equivalent to a mean endotoxin concentration of 3.3 pg). The elementary bodies are obtained by Chlamydia culture in MacCoy cells (American Type Culture Collection, Rockville, USA).
(§1) After incubation with C. pneumoniae, the cells are washed and detached from the wells; they are put in sterile vials and an oxidable substrate, α-keto-methyl butyric acid (KMB) at 10^−3 M, is added. The vial is sealed and the following reagents are added by needle puncture. through the septum: 200 U horseradish peroxidase (HRP) and 10^−7 M phorbol myristate acetate (PMA).
(§2) PMA is a monocyte activator, enhancing the superoxide anion production by these cells. Superoxide anion dismutates into hydrogen peroxide (H2O2), which is used by HRP to form more oxidant species, able to oxidize KMB, releasing ethylene. After 3 hours of incubation at 37° C, ethylene, which has accumulated in the gaseous phase of the sealed vial is measured by gas liquid chromatography, on a Porapak T column (TM) equipped with flame ionisation detector. These assays can be made with the prior addition of a reagent able to inhibit or to stimulate the monocytes, the reagent being added, either at pre-incubation (at the same time as the Chlamydia EB), or at the moment of PMA activation.

[2] = system: THP-1 cells conditioned with Escherichia Coli endotoxin (LPS); experiment: Oxidant activity (ethylene production) of THP-1 cells conditioned with Escherichia Coli endotoxin (LPS), then stimulated by PMA; details: for Ethylene: FIG. 9 part 2, % of THP-1 + LPS, PMA 10^−7 M
Description: FIG. 9 represents the effects of hydrocortisone (HCT) on the oxidant activity of THP-1 cells conditioned either with Chlamydia pneumoniae (part 1; n=13) or with Escherichia Coli endotoxin (LPS) (part 2), and then stimuled by PMA 10^−7 M. Ethylene is expressed in % of the value measured for THP-1 cells incubated with Chlamydia (column 2 for part 1), or incubated with LPS (column 1 for par 2).
as §1, §2
Two glucocorticoids were tested: hydrocortisone and methylprednisolone. […] On the contrary, HCT is an inhibitor on the oxidation rate when the cells are conditioned with endotoxins (LPS) of Escherichia coli (FIG. 9 part 2, columns 2, 3 and 4) (Ethylene values are expressed in % of the control cells=THP-1 cells stimulated by PMA 10^−7 M after pre-incubation with Chlamydia (part 1, column 2) or LPS ([…]

[3] = system: nuclear transcription factor kappaB (NF-κB); experiment: Activation of NF-κB (binding to DNA) by electrophoretic mobility shift assay in THP-1 cells pre-incubated with Chlamydia; details: for NF-κB relative value (%): THP-1 + Chlamydia, % of THP-1 without preincubation with C pneumoniae (FIG. 7)
Description: FIG. 7 represents the effects of pre-incubation with Chlamydia on the activity of the nuclear transcription factor kappaB (NF-kB) (column 2). NF-kB is expressed in % of column 1 (THP-1 cells without preincubation with C pneumoniae)
The activation of NF-κB was measured by the technique of <<electrophoretic mobility shift assay>> (EMSA) (Schoonbroodt et al., 2000, J Immunol. 164: 4292-4300; Nys et al., 2003, Nitric Oxide 9: 33-43) (FIG. 7). The activation of NF-κB is expressed in % of control cells (cells which have not been pre-incubated with Chlamydia) (column 1). The incubation of monocytes with C. pneumoniae activates the NF-κB binding to DNA (FIG. 7, column 2).

TNFα = TNFα production (ELISA, culture supernatant) by THP-1 cells pre-incubated with Chlamydia pneumoniae; details: 10^−9 M to 10^−5 M; THP-1 pre-incubated (19h) with Chlamydia
Description: (§3) By using this model, one may verify that the monocyte incubation with C. pneumoniae during 19 hours, enhances the production of TNFα(FIG. 6, part 1) and IL-8 ([…]), as measured by immunological methods (ELISA type) in the culture supernatant.

IL-8 = IL-8 production (ELISA, culture supernatant) by THP-1 cells pre-incubated with Chlamydia pneumoniae; details: 10^−9 M to 10^−5 M; THP-1 pre-incubated (19h) with Chlamydia
Description: as §3

p22^phox = experiment: Gene expression (PCR) of NADPH-oxidase subunit p22phox in THP-1 cells incubated with Chlamydia; details: FIG. 16; 10^−4 to 10^−6 M
Description: FIG. 16 represents the genetic expression of one of the subunits of NADPH-oxidase, the p22^phox, and the effects of glucocorticoids, hydrocortisone (HCT) and methylprednisolone (MPL) (data are expressed as relative values by comparison with a reference gene).
By the PCR (<<polymerase chain reaction>>) method, it was observed that the incubation of monocytes with C. pneumoniae increased the expression of the genes (FIG. 8, column 2 compared to column 1) coding for interleukines 1β (IL-1β) (FIG. 8, part 1), 6 (IL-6) (FIG. 8, part 2) and 8 (IL-8) (FIG. 8, part 3), coding for inducible cyclo-oxygenase (COX-2) (FIG. 8, part 4) and coding for one of the subunits of NADPH-oxidase, the p22 protein (p22^phox) (FIG. 8, part 5) (results are presented as relative values by comparison with a reference gene).

THP-1 cell line = experiment: Model of foam cell formation from THP-1 monocytes (Chlamydia pneumoniae, then LDL or liposomes, Oil Red O); details: LDL
Description: A model of foam cell formation from monocytes (THP-1 cell line) was developed. The cells are incubated for 19 hours with Chlamydia pneumoniae. This incubation is followed by the addition of human LDL or liposomes, and another incubation period of 48 hours. At the end of this second period of incubation, the cells are fixed and stained with oil Red O (Sigma, Belgium) (Smirnova et al., 2004, Am J Physiol Heart Circ Physiol. March 11 (Epub ahead of print) to highlight the foam cells. When drugs are used in this model, they are added at the same time as the LDL or liposomes. LDL are prepared from human blood drawn on EDTA. They are isolated by sequential flotation centrifugation with increased concentrations of KBr. After their isolation, LDL are dialysed, sterilised by filtration and their purity is confirmed by electrophoresis. Liposomes are lipid vesicles prepared by extrusion with cholesterol esters and phospholipids, mimicking lipoproteins.

SMILES: C[C@]12CCC(=O)C=C1CC[C@@H]1[C@@H]2[C@@H](O)C[C@@]2(C)[C@H]1CC[C@]2(O)C(=O)CO [HCT, hydrocortisone]
- Ethylene ([1]; FIG. 9 part 1, 10^−4 M, PMA 10^−7 M): 108%
- Ethylene ([1]; FIG. 9 part 1, 10^−5 M, PMA 10^−7 M): 119%
- Ethylene ([1]; FIG. 9 part 1, 10^−6 M, PMA 10^−7 M): 139%
- Ethylene ([1]; FIG. 19, drug alone 10^−4 M, pre-incubation with Chlamydia): 84.0%
- Ethylene ([1]; FIG. 19, drug alone 10^−5 M, pre-incubation with Chlamydia): 116.0%
- Ethylene ([1]; FIG. 20, drug alone 10^−4 M, pre-incubation with Chlamydia): 98.0%
- Ethylene ([1]; FIG. 20, drug alone 10^−5 M, pre-incubation with Chlamydia): 85.0%
- Ethylene ([1]; FIG. 21, drug alone 10^−4 M, pre-incubation with Chlamydia): 104.0%
- Ethylene ([1]; FIG. 21, drug alone 10^−5 M, pre-incubation with Chlamydia): 72.0%
- Ethylene ([1]; FIG. 22, drug alone 10^−4 M, pre-incubation with Chlamydia): 118.0%
- Ethylene ([1]; FIG. 22, drug alone 10^−5 M, pre-incubation with Chlamydia): 68.1%
- effect on oxidant activity / oxidation rate ([1]; drug added at cell conditioning with Chlamydia (pre-incubation 19 hours), then PMA 10^−7 M): either does not modify the oxidant capacity, or even increases the oxidation rate
- Ethylene ([2]; 10^−4 M): 19%
- Ethylene ([2]; 10^−5 M): 50%
- Ethylene ([2]; 10^−6 M): 57%
- effect on oxidation rate ([2]; cells conditioned with endotoxins (LPS) of Escherichia coli, 10^−4 to 10^−6 M): inhibitor
- NF-κB relative value (%) ([3]; 10^−5 M): 396%
- NF-κB relative value (%) ([3]; 10^−6 M): 480%
- effect on the activation of NF-κB ([3]; at 10^−5 and 10^−6 M): without significant effect
- activity of NF-κB ([3]; at 10^−6 M): slightly stimulated
- effect on production of TNFα (TNFα): dose-dependent inhibiting effect
- effect on production of IL-8 (IL-8): dose-dependent inhibiting effect
- effect on gene expression of p22^phox (p22^phox): inhibitors
- effect on transformation into foam cells (THP-1 cell line; 10^−5 M): favouring effect
- effect on transformation into foam cells (THP-1 cell line; at 10^−5 and 10^−6 M): does not inhibit the transformation into foam cells
